Source: US6596863B2, “Medical composition containing nitroetheneamine Derivative or salt there of as active constituent” (Ishihara Sangyo Kaisha, Ltd., priority 1998, dated 2003)

Tests used:
[1] = target: T1, human MMP-7 (Homo sapiens, UniProt P09237); assay: Enzyme inhibition activity against MMP-7 (matrilysin), fluorescent peptide substrate NFF-2; assay type: biochemical; conditions: human MMP-7, substrate NFF-2, 37° C. for 2.5 hours
T1 construct: purchased Kabushiki Kaisha Yagai Chuo Kenkyusho YU-31001
T1 sequence (P09237 95-267): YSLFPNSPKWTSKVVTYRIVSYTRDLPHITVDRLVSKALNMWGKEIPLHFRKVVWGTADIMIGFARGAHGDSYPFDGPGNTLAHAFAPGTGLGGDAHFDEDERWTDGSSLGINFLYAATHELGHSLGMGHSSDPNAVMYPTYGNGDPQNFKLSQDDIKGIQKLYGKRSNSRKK
Description: The inhibition activity against human MMP-7 was measured by the same method as the method for MMP-3, by using a MMP-7 solution (0.025 unit/ml; No. YU-31001, manufactured by Kabushiki Kaisha Yagai Chuo Kenkyusho, purity: at least 99.9%) and a fluorescent peptide substrate MOCAc—Arg-Pro-Lys-Pro-Tyr—Ala-Nva-Trp-Met-Lys(Dnp) -NH2 [NFF-2, No. 3167-v, manufactured by Peptide Institute, Inc.]. The enzymatic reaction was carried out at 37° C. for 2.5 hours in a dark place, and the relative fluorescence intensity was measured at a fluorescence wavelength of 400 nm with an excitation wavelength of 327 nm.

[2] = target: T2, human MMP-3 (Homo sapiens, UniProt P08254); assay: Enzyme inhibition activity against MMP-3 (stromelysin-1), fluorescent peptide substrate NFF-3; assay type: biochemical; conditions: human MMP-3, substrate NFF-3, 37° C. for 2 hours
T2 construct: purchased Kabushiki Kaisha Yagai Chuo Kenkyusho YU-26003
T2 sequence (P08254 100-477): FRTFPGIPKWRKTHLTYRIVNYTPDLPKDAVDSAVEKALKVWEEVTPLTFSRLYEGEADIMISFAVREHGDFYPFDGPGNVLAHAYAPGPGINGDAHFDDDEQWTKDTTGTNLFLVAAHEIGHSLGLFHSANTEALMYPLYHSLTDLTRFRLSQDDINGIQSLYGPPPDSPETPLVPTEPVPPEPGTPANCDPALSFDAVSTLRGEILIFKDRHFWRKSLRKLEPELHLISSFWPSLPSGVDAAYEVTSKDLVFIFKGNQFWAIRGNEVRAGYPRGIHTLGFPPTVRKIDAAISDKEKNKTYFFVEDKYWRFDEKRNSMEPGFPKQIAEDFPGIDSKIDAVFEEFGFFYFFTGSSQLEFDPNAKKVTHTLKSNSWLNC
Description: The inhibition activity against human MMP-3 was measured using a fluorescent peptide substrate MOCAc-Arg-Pro-Lys-Pro-Val-Glu-Nva-Trp—Arg-Lys(Dnp)-NH2[NFF-3, manufactured by Peptide Institute, Inc. (No. 3168-v)] with reference to the method disclosed in a literature (Knight C. G. et al, FEBS Letters, Vol. 296, 263-266, 1992, Nagase H. et al, Journal of Biological Chemistry, Vol. 269, 20952-20957, 1994). Namely, into each well of a Fluoro Nunc plate (96C) white (No. 437842, manufactured by Nunc Co.), 180 μl of a MMP-3 solution (0.0125 unit/ml; No. YU-26003, manufactured by Kabushiki Kaisha Yagai Chuo Kenkyusho, purity: at least 99%), 10 μl of a test materials (the compound of the present invention) dissolved in DMSO and 10 μl of a peptide substrate […] (final concentration: 10 μM) were added and maintained at 37° C. for 2 hours in a dark place. Dilution of the enzyme was carried out by using 50 mM of Tris-HCl (pH 7.5) comprising 0.1M of NaCl, 10 mM of CaCl2, 0.05% Brij 35 and 0.02% of NaN3.
For the MMP-3 enzymatic activity, the amount of the decomposition product after the reaction was quantitatively analyzed as the change in the relative fluorescence intensity at a fluorescence wavelength of 400 nm with an excitation wavelength of 326 nm (using a variable fluorescence plate reader (variable wavelength type) Spectron FL-2575, manufactured by Towa Kagaku K. K.), and the inhibition activity of the test materials against the enzymatic activity was calculated by comparing the relative fluorescence intensities of the inhibitor added group and the non-added group after completion of the reaction.

SMILES	IC50 [1] [µM]	IC50 [2] [µM]
CCOCCOc1cc(C(F)(F)F)cc(NNC(=C[N+](=O)[O-])NC)n1 [Compound No. 107]	18.7	22.3
CS(=O)(=O)NC(=C[N+](=O)[O-])NNc1cc(C(F)(F)F)cc(Cl)n1 [Compound No. 157, N-(1-(6-chloro-4-trifluoromethyl-2-pyridyl)hydrazino-2-nitroethenyl)methanesulfonamide]	16.5	24.2
CCOCCOc1cc(C(F)(F)F)cc(NNC(=C[N+](=O)[O-])NS(C)(=O)=O)n1 [Compound No. 164, N-(1-(6-(2-ethoxyethoxy)-4-trifluoromethyl-2-pyridyl)hydrazino-2-nitroethenyl)methanesulfonamide]	12	17.8
